Measured values from patent US20070037752A1, “Novel alanyl-amino peptidase inhibitors for functionally influencing different cells and treating immunological, inflammatory, neuronal, and other diseases” (priority 2003, published 2007).
Like-named read-outs stand apart in the source and are kept apart here. One block for each molecule: values may come before it.

Molecular target: alanyl aminopeptidases (APN) (Homo sapiens, UniProt P15144)
Assay: Inhibition of alanyl aminopeptidase enzymatic activity, fluorogenic substrate (Ala)2-rhodamine 110
Assay type: biochemical
Protocol: The inhibition characteristics measured are referred to as IC-50 values or ID50 values (the latter marked with “*”) for said enzyme. The enzymatic activity was determined by means of the fluorogenic substrate/product (Ala)2-rhodamine 110.

[1] = Table 3, starred values = ID50, read-out: ID50 APN (values marked with *)
[2] = Table 3, unstarred values, read-out: IC50APN
[3] = Table 9, starred values = ID50, read-out: ID50 APN (values marked with *)
[4] = Table 4, unstarred values, read-out: IC50APN
[5] = Table 9, unstarred values, read-out: IC50APN
[6] = Table 4, starred values = ID50, read-out: ID50 APN (values marked with *)

Chain of alanyl aminopeptidases (APN) (P15144 whole entry, species assumed): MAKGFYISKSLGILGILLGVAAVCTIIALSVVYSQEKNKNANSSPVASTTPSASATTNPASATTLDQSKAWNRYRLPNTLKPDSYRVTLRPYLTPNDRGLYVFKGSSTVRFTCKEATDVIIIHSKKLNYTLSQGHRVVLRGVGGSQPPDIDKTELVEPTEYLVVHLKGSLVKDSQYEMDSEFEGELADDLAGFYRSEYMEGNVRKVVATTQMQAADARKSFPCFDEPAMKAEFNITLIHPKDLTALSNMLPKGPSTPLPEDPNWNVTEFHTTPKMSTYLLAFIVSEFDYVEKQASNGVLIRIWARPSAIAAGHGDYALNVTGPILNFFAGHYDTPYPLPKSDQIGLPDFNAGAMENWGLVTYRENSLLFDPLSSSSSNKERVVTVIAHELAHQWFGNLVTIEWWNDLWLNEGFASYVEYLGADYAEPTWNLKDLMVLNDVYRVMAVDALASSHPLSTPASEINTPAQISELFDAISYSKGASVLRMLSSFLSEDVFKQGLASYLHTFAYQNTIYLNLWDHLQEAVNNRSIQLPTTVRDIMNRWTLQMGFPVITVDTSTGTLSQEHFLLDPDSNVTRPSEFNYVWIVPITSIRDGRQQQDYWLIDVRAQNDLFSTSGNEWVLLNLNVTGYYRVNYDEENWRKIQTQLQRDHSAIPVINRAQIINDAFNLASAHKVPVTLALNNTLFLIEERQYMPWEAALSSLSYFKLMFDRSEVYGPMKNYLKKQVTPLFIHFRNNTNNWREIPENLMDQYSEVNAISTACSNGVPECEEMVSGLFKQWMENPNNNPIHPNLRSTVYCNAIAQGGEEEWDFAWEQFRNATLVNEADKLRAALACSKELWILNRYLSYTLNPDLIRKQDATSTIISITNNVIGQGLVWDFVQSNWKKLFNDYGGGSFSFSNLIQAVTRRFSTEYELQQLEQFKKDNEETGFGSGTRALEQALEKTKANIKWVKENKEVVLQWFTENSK

Compound: C#CCN1C(c2cnccn2)=NC(CC(C)C)C1C(=O)Nc1c(C)cccc1C (centres unmarked) [A9.119]
IC50 [3]: 103 µM

Compound: CCCC1NC(=S)N(c2ccccc2)C1=O (centres unmarked) [A3.332]
IC50 [1]: 154 µM

Compound: O=C1c2ccccc2-c2c1[n+]([O-])c1c([n+]2[O-])CCCC1 [A9.003]
IC50 [3]: 2 µM

Compound: O=C1C2=[N+]([O-])C3CCCCC3[N+]([O-])=C2c2ccccc21 (centres unmarked) [A9.030]
IC50 [5]: 13.7 µM

Compound: COc1c(OCC(O)C(C)(C)O)ccc2c1N=C1OC=CC1C2OC (centres unmarked) [A3.321]
IC50 [2]: 125 µM

Compound: COC(=O)C1=C(N)N2C(=O)CSC2=C(C(=O)OC)C1 [A9.001]
IC50APN (Table 9, unstarred values): ‘very high ac- tive’, beyond measure

Compound: COc1ccc2c(C)nc(Nc3nc(C)c4ccccc4c(=O)n3)nc2c1 [A9.018]
IC50 [5]: 8.9 µM

Compound: O=C(C1c2ccccc2Oc2ccccc21)n1cc(Cl)cn1 [A3.179]
IC50 [2]: 29.1 µM

Compound: N/C(=N\N=C\c1ccco1)c1nonc1N [A2.007]
IC50 (Table 2, read-out: IC50APN): 14.6 µM

Compound: O=C(O)C1N=NC(c2ccc(F)cc2)=CN1O (centres unmarked) [A1.011]
IC50 (Table 1, unstarred values, read-out: IC50APN): 17.1 µM

Compound: NCC(O)CNCCc1ccccc1 (centres unmarked) [A12.039]
IC50 (Table 12, read-out: IC50APN): 21.2 µM

Compound: CC1=C(C#N)C(O)=NC(=O)/C1=C/c1ccc(-c2ccc(Cl)cc2Cl)o1 [A9.085]
IC50 [5]: 32.4 µM

Compound: COC(=O)CCC/C=C1/SC[C@@H](NC(=O)c2ccccc2)/C1=N/O [A3.317]
IC50 [2]: 93.6 µM

Compound: O=C(O)SCCC1NC(=S)N(c2ccccc2)C1=O (centres unmarked) [A12.024]
IC50 (Table 12, read-out: IC50APN): 12 µM

Compound: CSCCC1NC(=S)N(Cc2ccccc2)C1=O (centres unmarked) [A12.027]
IC50 (Table 12, read-out: IC50APN): 14.1 µM

Compound: C=CCN1C(=O)C(C#N)=C(C)/C(=C\c2ccc(-c3cc(C)c(C)cc3[N+](=O)[O-])o2)C1=O [A3.180]
IC50 [2]: 29.3 µM

Compound: COc1cc(C)[n+](OC(=O)N(C)C)c(C)c1 [A9.095]
IC50 [5]: 42.4 µM

Compound: Cc1cccc(NCC(=O)N/N=C/c2cc(Br)c(O)c(O)c2Br)c1 [A4.012]
IC50 [4]: 7.8 µM

Compound: N#CCCCCCCCCC(=O)NO [A12.069]
IC50 (Table 12, read-out: IC50APN): 80.6 µM

Compound: CC(C)C1N=C(Cc2cccnc2)N(CCCN2CCCC2=O)C1C(=O)NCc1ccccc1 (centres unmarked) [A12.055]
IC50 (Table 12, read-out: IC50APN): 34 µM

Compound: O=c1[nH]cc([N+](=O)[O-])cc1C(F)(F)F [A11.021]
IC50 (Table 11, read-out: IC50APN): 29.9 µM

Results, then the molecule that gave them:

IC50 [1]: 208 µM
Compound: O=C(/C=C/c1ccco1)NCCCN1CCOCC1 [A3.339]

IC50 [2]: 22.4 µM
Compound: O=C(N/N=C/c1ccco1)c1cccc(NC(=O)c2cccc(Br)c2)c1 [A3.131]

IC50 [4]: 12.9 µM
Compound: O=C(COc1cccc2ccccc12)N/N=C/c1ccco1 [A4.023]

IC50 [5]: 20.8 µM
Compound: CCCN1C(=O)C(C#N)=C(C)/C(=C\c2ccc(-c3cccc(Cl)c3C)o2)C1=O [A9.049]

IC50 [2]: 25.9 µM
Compound: O=C(N/N=C/c1ccco1)c1cccc(NC(=O)c2ccc(F)cc2)c1 [A3.156]

IC50 [2]: 18.2 µM
Compound: Cc1cc(=O)[nH]c(N/N=C/c2ccco2)n1 [A3.088]

IC50 [2]: 26.3 µM
Compound: O=C(CCCOc1ccc(Cl)cc1Cl)N/N=C/c1ccco1 [A3.158]

IC50 [4]: 33.4 µM
Compound: CCOc1ccc(-c2cc(C(=O)N/N=C/c3ccco3)[nH]n2)cc1OC [A4.104]

IC50 [2]: 26.6 µM
Compound: COc1ccc(C2(CNC(=O)/C=C/c3ccco3)CCCC2)cc1OC [A3.162]

IC50 [4]: 43.3 µM
Compound: O=C(Cn1cnc2ccccc21)N/N=C/c1ccco1 [A4.128]

IC50 [4]: 27.4 µM
Compound: Cc1nn(-c2ccccc2)c(C)c1-c1cc(C(=O)N/N=C/c2ccco2)[nH]n1 [A4.087]

IC50 [6]: 54.2 µM
Compound: Cc1ccc(OCC(=O)N/N=C/c2c(Br)cc(Br)c(O)c2Br)c(Br)c1 [A4.147]

IC50 [5]: 28.1 µM
Compound: COC(=O)c1ccccc1-c1ccc(/C=C2\C(=O)N(C)C(=O)C(C#N)=C2C)o1 [A9.071]

IC50 [2]: 5.2 µM
Compound: O=C(CCC(=O)Nc1ccc(Br)cc1)N/N=C/c1ccco1 [A3.019]

IC50 [2]: 43.3 µM
Compound: O=C(Cn1cnc2ccccc21)N/N=C/c1ccco1 [A3.238]

IC50 [2]: 34.7 µM
Compound: COc1ccccc1C(=O)N/N=C/c1ccc(C)o1 [A3.211]

IC50 [2]: 22.8 µM
Compound: CCN(CC)c1ccc(/C=N/NC(=O)CNC(=O)/C=C/c2ccco2)cc1 [A3.135]

IC50 [6]: 49.4 µM
Compound: O=C(CNC(=O)c1ccccc1)N/N=C/c1ccco1 [A4.140]

IC50 [2]: 28.1 µM
Compound: COC(=O)c1ccccc1-c1ccc(/C=C2\C(=O)N(C)C(=O)C(C#N)=C2C)o1 [A3.172]

IC50 [4]: 22.4 µM
Compound: O=C(N/N=C/c1ccco1)c1cccc(NC(=O)c2cccc(Br)c2)c1 [A4.064]

IC50 [2]: 46.6 µM
Compound: Nc1nonc1-n1nnc(C(=O)N/N=C/c2ccco2)c1-c1ccccc1 [A3.249]

IC50 [2]: 12.3 µM
Compound: Cc1nc(N)sc1C(=O)N/N=C/c1ccco1 [A3.052]

IC50 [2]: 69.3 µM
Compound: Cc1ccc(S(=O)(=O)N2CCC(C(=O)N/N=C/c3ccco3)CC2)cc1 [A3.298]

IC50 [4]: 21.8 µM
Compound: COc1ccc(C(=O)N/N=C/c2cc(Br)c(C)o2)cc1 [A4.060]

IC50 [2]: 38.2 µM
Compound: COc1ccc2ccccc2c1-c1cc(C(=O)N/N=C(\C)c2ccco2)[nH]n1 [A3.228]

IC50 [5]: 54 µM
Compound: CCCOC(=O)c1cc(-c2ccc(/C=C3\C(=O)N(CCO)C(=O)C(C#N)=C3C)o2)ccc1Cl [A9.101]
